Key:
Assay in all cases: HTS ATP-utilizing enzyme assay, off-chip mobility-shift (Caliper HTS 250)
Assay type in all cases: biochemical
CASPASE-7 = biological target: T1, CASPASE-7 (Homo sapiens, UniProt P55210); details: enzyme named = inhibitory activity/selectivity; test compound 10 μM; active = greater than three-sigma from mean
T1 sequence (P55210 24-198 limits assumed): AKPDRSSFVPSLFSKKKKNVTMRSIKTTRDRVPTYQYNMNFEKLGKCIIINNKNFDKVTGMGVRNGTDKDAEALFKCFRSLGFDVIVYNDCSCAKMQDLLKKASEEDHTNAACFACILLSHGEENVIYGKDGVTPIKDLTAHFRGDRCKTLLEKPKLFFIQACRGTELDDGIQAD
T1 sequence (P55210 207-303 limits assumed): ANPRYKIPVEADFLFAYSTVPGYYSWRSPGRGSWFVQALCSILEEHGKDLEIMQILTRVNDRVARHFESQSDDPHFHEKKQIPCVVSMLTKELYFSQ
Outline: (§1)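 Single-point screen at 10 µM compound: kinase reactions ran 2.5 h at 20–22 °C and were stopped with termination buffer. Inhibition was read as the substrate-to-phosphopeptide ratio by microfluidic mobility shift, with EDTA and DMSO wells as controls. Hits were called by three-sigma limits.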

CHEK2 = CHEK2 (Homo sapiens, UniProt O96017); details: kinase named = inhibitory activity/selectivity; test compound 10 μM; active = greater than three-sigma from mean
Chain of CHEK2 (O96017 whole entry): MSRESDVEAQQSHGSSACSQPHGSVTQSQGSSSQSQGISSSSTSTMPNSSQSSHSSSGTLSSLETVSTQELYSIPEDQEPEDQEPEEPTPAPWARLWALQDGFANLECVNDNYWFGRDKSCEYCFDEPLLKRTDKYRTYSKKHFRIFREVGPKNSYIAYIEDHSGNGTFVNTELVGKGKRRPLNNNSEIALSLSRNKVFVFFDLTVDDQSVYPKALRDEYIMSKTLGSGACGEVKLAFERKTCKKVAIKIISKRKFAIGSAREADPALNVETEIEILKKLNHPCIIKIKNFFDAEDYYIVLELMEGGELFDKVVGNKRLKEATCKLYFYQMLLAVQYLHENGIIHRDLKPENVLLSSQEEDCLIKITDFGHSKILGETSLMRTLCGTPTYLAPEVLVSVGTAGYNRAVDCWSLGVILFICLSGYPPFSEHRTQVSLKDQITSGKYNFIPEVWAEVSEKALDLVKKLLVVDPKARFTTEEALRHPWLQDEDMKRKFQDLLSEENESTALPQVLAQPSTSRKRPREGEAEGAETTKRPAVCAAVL
Outline: as §1

BMX = biological target: T2, BMX (Homo sapiens, UniProt P51813); details: kinase named = inhibitory activity/selectivity; test compound 10 μM; active = greater than three-sigma from mean
T2 sequence (P51813 1-675): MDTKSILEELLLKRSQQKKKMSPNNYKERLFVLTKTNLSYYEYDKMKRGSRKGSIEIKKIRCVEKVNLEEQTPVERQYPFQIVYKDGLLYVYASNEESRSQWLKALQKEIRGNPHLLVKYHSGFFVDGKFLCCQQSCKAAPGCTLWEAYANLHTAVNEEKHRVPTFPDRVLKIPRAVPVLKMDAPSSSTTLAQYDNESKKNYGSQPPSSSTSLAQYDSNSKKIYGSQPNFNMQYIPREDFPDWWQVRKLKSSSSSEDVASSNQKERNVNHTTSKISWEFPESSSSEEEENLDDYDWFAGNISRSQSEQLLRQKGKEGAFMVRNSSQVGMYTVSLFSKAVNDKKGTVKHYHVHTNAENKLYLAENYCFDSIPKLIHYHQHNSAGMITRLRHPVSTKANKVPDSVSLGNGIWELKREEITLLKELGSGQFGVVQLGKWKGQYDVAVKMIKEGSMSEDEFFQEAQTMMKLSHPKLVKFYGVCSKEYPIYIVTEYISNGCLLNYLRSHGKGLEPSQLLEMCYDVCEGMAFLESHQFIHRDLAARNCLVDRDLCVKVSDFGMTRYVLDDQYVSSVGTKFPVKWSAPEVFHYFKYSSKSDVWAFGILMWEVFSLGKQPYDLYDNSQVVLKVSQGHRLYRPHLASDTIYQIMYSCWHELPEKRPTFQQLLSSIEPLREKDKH
Outline: as §1

DYRK2 = biological target: T3, DYRK2 (Homo sapiens, UniProt Q92630); details: kinase named = inhibitory activity/selectivity; test compound 10 μM; active = greater than three-sigma from mean
T3 sequence (Q92630 1-601): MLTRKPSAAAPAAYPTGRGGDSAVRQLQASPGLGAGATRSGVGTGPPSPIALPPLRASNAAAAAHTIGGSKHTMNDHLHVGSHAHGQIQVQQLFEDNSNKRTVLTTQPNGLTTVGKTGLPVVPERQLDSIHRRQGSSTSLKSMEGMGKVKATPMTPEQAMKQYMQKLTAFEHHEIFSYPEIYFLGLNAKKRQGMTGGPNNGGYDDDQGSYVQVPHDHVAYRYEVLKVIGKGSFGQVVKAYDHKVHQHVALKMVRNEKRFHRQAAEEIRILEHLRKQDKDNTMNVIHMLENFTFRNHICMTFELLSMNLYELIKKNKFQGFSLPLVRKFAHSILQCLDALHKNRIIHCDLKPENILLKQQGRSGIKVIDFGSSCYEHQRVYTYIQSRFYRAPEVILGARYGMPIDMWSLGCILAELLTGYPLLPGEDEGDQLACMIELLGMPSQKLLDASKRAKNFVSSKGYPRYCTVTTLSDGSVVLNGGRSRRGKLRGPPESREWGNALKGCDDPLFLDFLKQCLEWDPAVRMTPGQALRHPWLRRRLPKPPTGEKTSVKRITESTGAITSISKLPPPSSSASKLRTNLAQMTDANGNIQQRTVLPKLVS
Outline: as §1

FLT-3 = biological target: T4, FLT-3 (Homo sapiens, UniProt P36888); details: kinase named = inhibitory activity/selectivity; test compound 10 μM; active = greater than three-sigma from mean
T4 sequence (P36888 27-993): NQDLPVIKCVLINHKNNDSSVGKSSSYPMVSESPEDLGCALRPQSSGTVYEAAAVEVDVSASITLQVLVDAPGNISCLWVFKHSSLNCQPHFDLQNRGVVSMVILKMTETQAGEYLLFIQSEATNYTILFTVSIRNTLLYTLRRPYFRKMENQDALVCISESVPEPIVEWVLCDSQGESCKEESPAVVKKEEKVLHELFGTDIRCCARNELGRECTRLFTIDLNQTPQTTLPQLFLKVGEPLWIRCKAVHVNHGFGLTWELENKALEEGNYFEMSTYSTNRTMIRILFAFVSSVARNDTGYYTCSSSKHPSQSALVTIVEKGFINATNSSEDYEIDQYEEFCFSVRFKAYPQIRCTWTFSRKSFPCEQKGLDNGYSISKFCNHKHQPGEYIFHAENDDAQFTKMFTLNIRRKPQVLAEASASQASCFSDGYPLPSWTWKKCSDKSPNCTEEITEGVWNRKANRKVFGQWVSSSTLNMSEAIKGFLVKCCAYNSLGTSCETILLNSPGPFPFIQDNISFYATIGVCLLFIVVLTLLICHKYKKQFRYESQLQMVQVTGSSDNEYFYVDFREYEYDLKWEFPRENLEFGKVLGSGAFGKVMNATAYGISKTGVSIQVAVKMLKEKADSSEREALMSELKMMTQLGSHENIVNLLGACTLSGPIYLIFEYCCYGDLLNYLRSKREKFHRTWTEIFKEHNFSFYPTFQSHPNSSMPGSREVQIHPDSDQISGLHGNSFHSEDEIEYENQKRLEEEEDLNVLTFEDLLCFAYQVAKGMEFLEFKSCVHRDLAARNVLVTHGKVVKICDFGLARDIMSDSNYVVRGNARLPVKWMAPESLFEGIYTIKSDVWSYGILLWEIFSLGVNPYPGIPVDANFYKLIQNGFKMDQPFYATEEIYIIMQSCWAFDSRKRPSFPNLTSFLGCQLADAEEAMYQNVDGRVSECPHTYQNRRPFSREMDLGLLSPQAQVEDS
Outline: as §1

KIT = KIT (Homo sapiens, UniProt P10721); details: kinase named = inhibitory activity/selectivity; test compound 10 μM; active = greater than three-sigma from mean
Chain of KIT (P10721 26-976): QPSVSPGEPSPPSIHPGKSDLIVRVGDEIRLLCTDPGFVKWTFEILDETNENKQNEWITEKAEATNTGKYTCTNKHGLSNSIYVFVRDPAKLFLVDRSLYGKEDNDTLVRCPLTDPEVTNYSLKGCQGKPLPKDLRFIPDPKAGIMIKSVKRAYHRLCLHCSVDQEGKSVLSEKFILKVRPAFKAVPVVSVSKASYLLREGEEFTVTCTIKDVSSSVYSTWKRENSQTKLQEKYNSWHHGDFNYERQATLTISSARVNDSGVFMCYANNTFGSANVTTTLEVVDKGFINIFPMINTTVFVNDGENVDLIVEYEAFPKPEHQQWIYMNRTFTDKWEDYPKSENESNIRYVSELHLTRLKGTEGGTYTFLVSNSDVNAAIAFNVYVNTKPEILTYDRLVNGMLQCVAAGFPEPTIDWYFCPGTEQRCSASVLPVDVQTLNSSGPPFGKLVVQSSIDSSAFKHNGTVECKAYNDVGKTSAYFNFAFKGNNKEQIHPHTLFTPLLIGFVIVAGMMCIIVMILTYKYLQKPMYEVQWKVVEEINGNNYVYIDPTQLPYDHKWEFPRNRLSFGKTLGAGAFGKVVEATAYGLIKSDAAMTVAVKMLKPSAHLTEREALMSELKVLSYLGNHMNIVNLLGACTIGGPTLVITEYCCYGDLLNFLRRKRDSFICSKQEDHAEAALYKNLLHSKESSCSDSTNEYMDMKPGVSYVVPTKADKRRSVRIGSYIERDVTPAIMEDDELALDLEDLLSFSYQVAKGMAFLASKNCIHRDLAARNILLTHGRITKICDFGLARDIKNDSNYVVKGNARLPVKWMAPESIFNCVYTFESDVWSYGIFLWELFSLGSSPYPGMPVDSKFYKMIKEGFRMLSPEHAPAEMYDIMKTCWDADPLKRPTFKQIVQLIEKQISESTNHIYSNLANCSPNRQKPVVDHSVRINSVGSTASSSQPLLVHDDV
Outline: as §1

PDGFR-α = PDGFR-α (Homo sapiens, UniProt P16234); details: kinase named = inhibitory activity/selectivity; test compound 10 μM; active = greater than three-sigma from mean
Chain of PDGFR-α (P16234 24-1089): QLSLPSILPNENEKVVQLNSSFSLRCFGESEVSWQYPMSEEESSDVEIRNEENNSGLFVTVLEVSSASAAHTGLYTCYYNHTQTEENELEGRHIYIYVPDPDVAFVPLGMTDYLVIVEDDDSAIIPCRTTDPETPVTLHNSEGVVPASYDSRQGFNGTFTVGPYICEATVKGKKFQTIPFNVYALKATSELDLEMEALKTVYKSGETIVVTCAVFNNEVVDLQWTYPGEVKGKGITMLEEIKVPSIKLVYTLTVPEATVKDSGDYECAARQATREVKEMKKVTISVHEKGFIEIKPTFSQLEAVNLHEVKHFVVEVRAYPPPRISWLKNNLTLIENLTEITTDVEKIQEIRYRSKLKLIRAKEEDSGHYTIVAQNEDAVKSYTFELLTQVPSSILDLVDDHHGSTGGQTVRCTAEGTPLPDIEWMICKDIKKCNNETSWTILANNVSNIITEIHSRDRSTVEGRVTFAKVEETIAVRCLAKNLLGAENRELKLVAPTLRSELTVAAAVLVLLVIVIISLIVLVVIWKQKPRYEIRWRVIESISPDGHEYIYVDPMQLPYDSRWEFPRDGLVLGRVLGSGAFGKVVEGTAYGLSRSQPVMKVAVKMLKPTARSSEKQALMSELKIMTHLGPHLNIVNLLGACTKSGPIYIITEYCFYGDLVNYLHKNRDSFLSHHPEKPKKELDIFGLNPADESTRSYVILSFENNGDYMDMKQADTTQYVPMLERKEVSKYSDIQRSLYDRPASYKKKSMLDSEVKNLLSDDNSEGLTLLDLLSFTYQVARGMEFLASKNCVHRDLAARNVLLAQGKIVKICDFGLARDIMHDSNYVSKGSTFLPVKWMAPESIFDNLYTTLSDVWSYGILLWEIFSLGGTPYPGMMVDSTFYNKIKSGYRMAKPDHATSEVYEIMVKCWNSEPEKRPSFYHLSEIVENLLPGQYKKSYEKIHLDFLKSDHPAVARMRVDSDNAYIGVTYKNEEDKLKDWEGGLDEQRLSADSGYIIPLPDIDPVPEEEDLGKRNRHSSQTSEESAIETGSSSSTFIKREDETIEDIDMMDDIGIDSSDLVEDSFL
Outline: as §1

ZAP70 = biological target: T5, ZAP70 (Homo sapiens, UniProt P43403); details: kinase named = inhibitory activity/selectivity; test compound 10 μM; active = greater than three-sigma from mean
T5 sequence (P43403 1-619): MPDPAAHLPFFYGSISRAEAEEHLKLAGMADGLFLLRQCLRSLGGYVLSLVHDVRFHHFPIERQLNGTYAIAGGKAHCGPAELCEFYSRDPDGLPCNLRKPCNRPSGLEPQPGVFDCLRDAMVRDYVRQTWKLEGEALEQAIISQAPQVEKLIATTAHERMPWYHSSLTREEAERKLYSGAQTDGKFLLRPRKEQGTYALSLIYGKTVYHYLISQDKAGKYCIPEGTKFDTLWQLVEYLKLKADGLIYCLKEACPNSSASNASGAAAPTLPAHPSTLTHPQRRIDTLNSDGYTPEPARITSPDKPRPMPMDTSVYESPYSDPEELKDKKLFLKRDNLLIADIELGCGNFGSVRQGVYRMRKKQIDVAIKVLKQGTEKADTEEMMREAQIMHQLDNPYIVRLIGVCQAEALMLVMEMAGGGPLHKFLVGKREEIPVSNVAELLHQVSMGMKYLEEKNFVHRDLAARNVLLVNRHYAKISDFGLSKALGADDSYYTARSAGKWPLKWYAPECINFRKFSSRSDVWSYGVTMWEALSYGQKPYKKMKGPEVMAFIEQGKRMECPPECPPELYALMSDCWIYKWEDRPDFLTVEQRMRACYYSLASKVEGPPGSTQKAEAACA
Outline: as §1

PDK1 = biological target: T6, PDK1 (Homo sapiens, UniProt O15530); details: kinase named = inhibitory activity/selectivity; test compound 10 μM; active = greater than three-sigma from mean
T6 sequence (O15530 1-556): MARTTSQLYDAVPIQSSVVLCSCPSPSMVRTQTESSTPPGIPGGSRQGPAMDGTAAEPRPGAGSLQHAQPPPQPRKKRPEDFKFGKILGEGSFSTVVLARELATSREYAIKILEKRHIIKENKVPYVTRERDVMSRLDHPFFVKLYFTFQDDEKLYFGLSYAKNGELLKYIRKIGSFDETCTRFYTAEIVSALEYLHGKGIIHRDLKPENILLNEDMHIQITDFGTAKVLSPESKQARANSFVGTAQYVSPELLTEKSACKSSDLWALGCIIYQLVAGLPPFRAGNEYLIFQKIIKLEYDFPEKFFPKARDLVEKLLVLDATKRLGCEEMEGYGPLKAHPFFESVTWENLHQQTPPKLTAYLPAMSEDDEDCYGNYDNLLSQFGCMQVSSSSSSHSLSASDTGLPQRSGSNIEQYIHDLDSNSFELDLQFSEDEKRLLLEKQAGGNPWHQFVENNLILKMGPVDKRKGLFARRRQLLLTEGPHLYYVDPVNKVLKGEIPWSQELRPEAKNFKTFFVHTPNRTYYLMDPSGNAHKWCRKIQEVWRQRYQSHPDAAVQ
Outline: as §1

Question: With COc1ccc(OC)c(-c2csc(N(CCCN(C)C)C(=O)c3ccccc3)n2)c1 [N-(4-(2,5-dimethoxyphenyl)thiazol-2-yl)-N-(3-(dimethylamino)propyl)benzamide] as the molecule, how does the Activity (CASPASE-7) read?
Answer: Its Activity is “CASPASE-7”.

Question: And the Activity (CHEK2)?
Answer: Its Activity is “CHEK2”.

Question: How did the Activity (BMX) turn out when COc1ccc(-c2csc(N(CCCN3CCOCC3)C(=O)Cc3ccccc3Cl)n2)cc1 [2-(2-chlorophenyl)-N-(4-(4-methoxyphenyl)thiazol-2-yl)-N-(3-morpholinopropyl)acetamide] was run?
Answer: The Activity was “BMX”.

Question: What does the source list for COc1ccc(-c2csc(N(CCCN3CCOCC3)C(=O)c3snnc3C)n2)cc1 [N-(4-(4-methoxyphenyl)thiazol-2-yl)-4-methyl-N-(3-morpholinopropyl)-1,2,3-thiadiazole-5-carboxamide]?
Answer: Activity (DYRK2): DYRK2; Activity (FLT-3): FLT-3; Activity (KIT): KIT; Activity (PDGFR-α): PDGFR-α; Activity (ZAP70): ZAP70

Question: Which Activity (PDK1) does the source give for COc1ccc(-c2csc(N(CCCN3CCOCC3)C(=O)c3sc(C)nc3C)n2)cc1 [N-(4-(4-methoxyphenyl)thiazol-2-yl)-2,4-dimethyl-N-(3-morpholinopropyl)thiazole-5-carboxamide] here?
Answer: Its Activity is “PDK1”.

Source: US7795290B2 (Genentech, Inc., priority 2004, dated 2010)
